Like-named read-outs stand apart in the source and are kept apart here.
Columns and labels:
5-HT4 receptor = 5-HT4 receptor (Cavia porcellus, UniProt O70528); test: Guinea pig colonic longitudinal muscle/myenteric plexus; settings: for Guinea pig colonic LMMP contractile activity IA (mean % 5-HT max ± SEM): isolated tissue, % of primed 5-HT (0.3 μM) maximum
rat esophagus = test: Rat esophageal relaxation; assay type: in vivo; settings: cumulative i.d. dosing, anesthetized rats
hERG potassium channel = hERG potassium channel (Homo sapiens, UniProt Q12809); test: in vitro
human 5-HT4(c) receptor = human 5-HT4(c) receptor (Homo sapiens, UniProt Q13639); assay type: cell-based; settings: for pKb of GR113808 (Schild regression): GR113808 0.6, 1.7, or 5 nM, 95% CI
[1] = target: human 5-HT4(c) (h5-HT4(c)) receptor (Homo sapiens, UniProt Q13639); test: biochemical
[2] = test system: canine antrum, duodenum, and jejunum; test: Dog gastrointestinal contractility; assay type: in vivo; settings: oral, conscious fasted dogs; TD-8954 0.01 and 0.03 mg/kg, tegaserod 0.1 and 0.3 mg/kg

Chain of 5-HT4 receptor (O70528 whole entry): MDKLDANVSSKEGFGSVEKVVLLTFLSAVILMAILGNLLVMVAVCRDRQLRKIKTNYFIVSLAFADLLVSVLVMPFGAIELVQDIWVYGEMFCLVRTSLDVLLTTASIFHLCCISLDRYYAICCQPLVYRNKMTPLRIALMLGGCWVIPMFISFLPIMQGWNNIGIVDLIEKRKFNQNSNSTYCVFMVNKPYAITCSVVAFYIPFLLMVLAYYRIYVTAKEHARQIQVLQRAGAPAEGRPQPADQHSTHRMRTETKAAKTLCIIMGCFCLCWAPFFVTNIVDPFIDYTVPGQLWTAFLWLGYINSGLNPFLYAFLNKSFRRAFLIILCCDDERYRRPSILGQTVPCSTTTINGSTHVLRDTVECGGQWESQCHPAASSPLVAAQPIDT
Chain of human 5-HT4(c) receptor (Q13639 1-380 isoform Q13639-4): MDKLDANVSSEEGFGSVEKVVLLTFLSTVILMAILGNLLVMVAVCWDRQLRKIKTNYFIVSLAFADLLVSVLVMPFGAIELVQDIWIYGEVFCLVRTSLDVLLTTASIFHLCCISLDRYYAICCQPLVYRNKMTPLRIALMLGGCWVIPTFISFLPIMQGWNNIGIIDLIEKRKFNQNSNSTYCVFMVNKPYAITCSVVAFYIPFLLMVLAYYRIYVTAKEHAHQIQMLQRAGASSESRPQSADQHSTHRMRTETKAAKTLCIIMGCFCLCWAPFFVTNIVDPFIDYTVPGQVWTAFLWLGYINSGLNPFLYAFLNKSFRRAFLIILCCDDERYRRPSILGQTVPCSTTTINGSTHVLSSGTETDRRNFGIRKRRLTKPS
Chain of human 5-HT4(c) (h5-HT4(c)) receptor (Q13639 1-380 isoform Q13639-4): as above
Chain of hERG potassium channel (Q12809 whole entry): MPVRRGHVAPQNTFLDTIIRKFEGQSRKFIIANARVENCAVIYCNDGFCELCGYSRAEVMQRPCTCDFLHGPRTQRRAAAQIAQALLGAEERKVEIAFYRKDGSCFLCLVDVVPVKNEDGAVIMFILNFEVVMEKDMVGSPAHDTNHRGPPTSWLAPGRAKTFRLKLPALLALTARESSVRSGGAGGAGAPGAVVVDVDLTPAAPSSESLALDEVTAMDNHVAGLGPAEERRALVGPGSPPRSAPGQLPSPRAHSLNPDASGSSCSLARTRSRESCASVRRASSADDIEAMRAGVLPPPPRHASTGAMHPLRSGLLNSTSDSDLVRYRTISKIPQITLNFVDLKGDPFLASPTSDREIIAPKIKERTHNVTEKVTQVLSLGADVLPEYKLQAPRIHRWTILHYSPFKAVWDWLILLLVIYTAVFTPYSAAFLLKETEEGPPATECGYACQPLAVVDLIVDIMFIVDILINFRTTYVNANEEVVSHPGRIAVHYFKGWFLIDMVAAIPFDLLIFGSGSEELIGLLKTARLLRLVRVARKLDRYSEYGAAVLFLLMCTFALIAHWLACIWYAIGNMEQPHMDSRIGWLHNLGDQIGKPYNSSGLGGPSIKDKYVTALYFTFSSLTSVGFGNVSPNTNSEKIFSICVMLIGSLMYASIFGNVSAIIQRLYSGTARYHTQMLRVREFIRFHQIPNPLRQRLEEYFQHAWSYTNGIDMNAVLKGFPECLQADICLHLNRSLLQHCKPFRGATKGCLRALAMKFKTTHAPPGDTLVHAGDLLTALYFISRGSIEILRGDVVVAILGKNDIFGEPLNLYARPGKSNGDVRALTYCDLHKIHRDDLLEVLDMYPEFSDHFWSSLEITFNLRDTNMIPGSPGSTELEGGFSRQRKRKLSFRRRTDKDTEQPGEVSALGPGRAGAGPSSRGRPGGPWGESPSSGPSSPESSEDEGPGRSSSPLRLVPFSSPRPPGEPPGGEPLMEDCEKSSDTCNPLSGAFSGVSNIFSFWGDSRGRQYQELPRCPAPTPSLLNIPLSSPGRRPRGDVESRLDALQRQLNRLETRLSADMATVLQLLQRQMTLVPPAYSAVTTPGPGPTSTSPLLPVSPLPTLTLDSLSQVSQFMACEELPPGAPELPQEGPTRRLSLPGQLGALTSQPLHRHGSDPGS

Which results are given for `COc1cc(N)c(Cl)cc1C(=O)NC1CCN(CCCOc2ccc(F)cc2)CC1OC` (stereo not shown) [Cisapride, cisapride]?
Guinea pig colonic LMMP contractile activity IA (mean % 5-HT max ± SEM) (5-HT4 receptor): 75 ± 3 % 5-HT max; Guinea pig colonic LMMP contractile activity IA (mean % 5-HT max ± SEM) (5-HT4 receptor; listed as cisapride): 75 % 5-HT max; dose associated with a relaxation response of 0.1 mm (rat esophagus): 2.66 mg/kg; inhibition at 0.02 µM (hERG potassium channel): 65%

Which “pKb of GR113808 (Schild regression)” value (human 5-HT4(c) receptor; against 5-HT, cAMP accumulation) does the source give for `Cn1cc(C(=O)OCC2CCN(CCNS(C)(=O)=O)CC2)c2ccccc21` [GR113808] here?
Its value is 10.3 (95% CI: 10.2–10.4).

And the “pKb of GR113808 (Schild regression)” value (human 5-HT4(c) receptor; against TD-8954, cAMP accumulation)?
The value was 10.3 (95% CI: 10.2–10.5).

Which results are given for `CCOc1cc(N)c(Cl)cc1C(=O)NCC1CN(Cc2ccc(F)cc2)CCO1` (stereo not shown) [Mosapride, mosapride]?
EC50 (human 5-HT4(c) receptor): 501 nM; EC50 (5-HT4 receptor): 3980 nM; Guinea pig colonic LMMP contractile activity IA (mean % 5-HT max ± SEM) (5-HT4 receptor): 37 ± 2 % 5-HT max; Guinea pig colonic LMMP contractile activity IA (mean % 5-HT max ± SEM) (5-HT4 receptor; listed as mosapride): 37 % 5-HT max; dose associated with a relaxation response of 0.1 mm (rat esophagus): 4.37 mg/kg; Ki [1]: 158 nM

How did the “dose associated with a relaxation response of 0.1 mm” value (rat esophagus) turn out when `COCCCN1CCC(NC(=O)c2cc(Cl)c(N)c3c2OCC3)CC1` [Prucalopride, prucalopride] was run?
The value was 0.30 mg/kg.

`[H]/N=C(/NCCCCC)N/N=C/c1c[nH]c2ccc(OC)cc12` [Tegaserod, tegaserod] was tested. Which “Guinea pig colonic LMMP contractile activity IA (mean % 5-HT max ± SEM)” value (5-HT4 receptor) did it give?
The value was 45 ± 13 % 5-HT max.

And the “Guinea pig colonic LMMP contractile activity IA (mean % 5-HT max ± SEM)” value (5-HT4 receptor; listed as tegaserod)?
Its value is 45 % 5-HT max.

And the “dose associated with a relaxation response of 0.1 mm” value (rat esophagus)?
The value was 2.43 mg/kg.

What about the “effect on contractility in the antrum, duodenum, and jejunum” value [2] of the same compound?
The value was “increases in contractility”.

What about the Ki [1] of the same compound?
The Ki was 2.51 nM.

With `CCCCN1CCC(CNC(=O)c2c3n(c4ccccc24)CCCO3)CC1` [piboserod] as the compound, how does the “shift of the TD-8954 concentration–response curve” value (5-HT4 receptor; piboserod 0.3 μM, guinea pig colonic LMMP) read?
The value was 614 fold.

From article PMC3108484 (Frontiers in Pharmacology, 2011)
